Reference: ChEMBL document CHEMBL1146269, “Intermediate analogue inhibitors of mandelate racemase: N-Hydroxyformanilide and cupferron” (Bioorg Med Chem Lett, 2007)

Experiments:
[1] = target: T1, Mandelate racemase (Pseudomonas putida, UniProt P11444); test: Inhibition of mandelate racemase in Pseudomonas putida
T1 sequence (P11444 whole entry): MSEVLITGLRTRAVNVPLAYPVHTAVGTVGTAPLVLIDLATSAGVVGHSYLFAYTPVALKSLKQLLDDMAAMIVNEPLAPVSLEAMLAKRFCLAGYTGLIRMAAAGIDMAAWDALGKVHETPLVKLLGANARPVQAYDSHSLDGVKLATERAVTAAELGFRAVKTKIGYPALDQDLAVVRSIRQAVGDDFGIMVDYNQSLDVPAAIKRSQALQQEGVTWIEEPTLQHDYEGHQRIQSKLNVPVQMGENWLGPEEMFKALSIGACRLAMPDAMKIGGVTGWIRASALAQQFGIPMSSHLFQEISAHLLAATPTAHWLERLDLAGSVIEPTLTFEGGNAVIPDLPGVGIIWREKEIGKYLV

[2] = Dissociation constant, pKa of the compound; type: physicochemical

O=C1Cc2ccccc2N1O
Ki [1]: 510 µM

O=CN(O)c1ccccc1
pKa [2]: 7.92 | Ki [1]: 2.79 µM

O=C(NO)c1ccccc1 [BENZOHYDROXAMATE]
Ki [1]: 12 µM

O=NN(O)c1ccccc1 [CUPFERRON]
Ki [1]: 2.67 µM
